The results in this text go back to patent publication US20040013717A1, “PEG-lipid containing formulations” (priority 2001, published 2004).

This data set can be described thus: Stability of cryodesiccated composition. The data set is classed as physicochemical. To be noted: room temperature. From the text:
Once formulated, the micelles of the invention may be freeze-dried or lyophilized for long-term storage if desired. […] If the composition is freeze-dried, it may be packed in vials for subsequent reconstitution with a suitable aqueous solution, such as sterile water or sterile water containing a saccharide and/or other suitable excipients, just prior to use. For example, reconstitution may be by simply adding water for injection just prior to administration.

Consider “benzoporphyrin derivative monoacid ring A [verteporfin]”, for which the “period over which potency was maintained” value is recorded as “at least nine months”.
